Data from US8410112B2, “Compounds useful as inhibitors of ATR kinase” (Vertex Pharmaceuticals Incorporated, priority 2008, dated 2013).

Target: T1, full-length ATR (Homo sapiens, UniProt Q13535)
T1 construct: in the presence of 5 nM full-length ATR
Test: ATR Inhibition Assay (radioactive-phosphate incorporation)
Type: biochemical
Settings: Ki(app); 5 nM full-length ATR, 10 μM ATP, 800 μM target peptide, 25° C.
In short: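 After a 10-min pre-incubation of compound with 5 nM enzyme at 25 °C, ATP was added to start the reaction (final 10 μM [γ-33P]ATP, 800 μM peptide; Tris/HCl pH 7.5, MgCl2, DTT), which ran 24 h. Incorporated 33P was captured on phosphocellulose filters, and Ki(app) was fitted by non-linear regression.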

T1 sequence (Q13535 whole entry): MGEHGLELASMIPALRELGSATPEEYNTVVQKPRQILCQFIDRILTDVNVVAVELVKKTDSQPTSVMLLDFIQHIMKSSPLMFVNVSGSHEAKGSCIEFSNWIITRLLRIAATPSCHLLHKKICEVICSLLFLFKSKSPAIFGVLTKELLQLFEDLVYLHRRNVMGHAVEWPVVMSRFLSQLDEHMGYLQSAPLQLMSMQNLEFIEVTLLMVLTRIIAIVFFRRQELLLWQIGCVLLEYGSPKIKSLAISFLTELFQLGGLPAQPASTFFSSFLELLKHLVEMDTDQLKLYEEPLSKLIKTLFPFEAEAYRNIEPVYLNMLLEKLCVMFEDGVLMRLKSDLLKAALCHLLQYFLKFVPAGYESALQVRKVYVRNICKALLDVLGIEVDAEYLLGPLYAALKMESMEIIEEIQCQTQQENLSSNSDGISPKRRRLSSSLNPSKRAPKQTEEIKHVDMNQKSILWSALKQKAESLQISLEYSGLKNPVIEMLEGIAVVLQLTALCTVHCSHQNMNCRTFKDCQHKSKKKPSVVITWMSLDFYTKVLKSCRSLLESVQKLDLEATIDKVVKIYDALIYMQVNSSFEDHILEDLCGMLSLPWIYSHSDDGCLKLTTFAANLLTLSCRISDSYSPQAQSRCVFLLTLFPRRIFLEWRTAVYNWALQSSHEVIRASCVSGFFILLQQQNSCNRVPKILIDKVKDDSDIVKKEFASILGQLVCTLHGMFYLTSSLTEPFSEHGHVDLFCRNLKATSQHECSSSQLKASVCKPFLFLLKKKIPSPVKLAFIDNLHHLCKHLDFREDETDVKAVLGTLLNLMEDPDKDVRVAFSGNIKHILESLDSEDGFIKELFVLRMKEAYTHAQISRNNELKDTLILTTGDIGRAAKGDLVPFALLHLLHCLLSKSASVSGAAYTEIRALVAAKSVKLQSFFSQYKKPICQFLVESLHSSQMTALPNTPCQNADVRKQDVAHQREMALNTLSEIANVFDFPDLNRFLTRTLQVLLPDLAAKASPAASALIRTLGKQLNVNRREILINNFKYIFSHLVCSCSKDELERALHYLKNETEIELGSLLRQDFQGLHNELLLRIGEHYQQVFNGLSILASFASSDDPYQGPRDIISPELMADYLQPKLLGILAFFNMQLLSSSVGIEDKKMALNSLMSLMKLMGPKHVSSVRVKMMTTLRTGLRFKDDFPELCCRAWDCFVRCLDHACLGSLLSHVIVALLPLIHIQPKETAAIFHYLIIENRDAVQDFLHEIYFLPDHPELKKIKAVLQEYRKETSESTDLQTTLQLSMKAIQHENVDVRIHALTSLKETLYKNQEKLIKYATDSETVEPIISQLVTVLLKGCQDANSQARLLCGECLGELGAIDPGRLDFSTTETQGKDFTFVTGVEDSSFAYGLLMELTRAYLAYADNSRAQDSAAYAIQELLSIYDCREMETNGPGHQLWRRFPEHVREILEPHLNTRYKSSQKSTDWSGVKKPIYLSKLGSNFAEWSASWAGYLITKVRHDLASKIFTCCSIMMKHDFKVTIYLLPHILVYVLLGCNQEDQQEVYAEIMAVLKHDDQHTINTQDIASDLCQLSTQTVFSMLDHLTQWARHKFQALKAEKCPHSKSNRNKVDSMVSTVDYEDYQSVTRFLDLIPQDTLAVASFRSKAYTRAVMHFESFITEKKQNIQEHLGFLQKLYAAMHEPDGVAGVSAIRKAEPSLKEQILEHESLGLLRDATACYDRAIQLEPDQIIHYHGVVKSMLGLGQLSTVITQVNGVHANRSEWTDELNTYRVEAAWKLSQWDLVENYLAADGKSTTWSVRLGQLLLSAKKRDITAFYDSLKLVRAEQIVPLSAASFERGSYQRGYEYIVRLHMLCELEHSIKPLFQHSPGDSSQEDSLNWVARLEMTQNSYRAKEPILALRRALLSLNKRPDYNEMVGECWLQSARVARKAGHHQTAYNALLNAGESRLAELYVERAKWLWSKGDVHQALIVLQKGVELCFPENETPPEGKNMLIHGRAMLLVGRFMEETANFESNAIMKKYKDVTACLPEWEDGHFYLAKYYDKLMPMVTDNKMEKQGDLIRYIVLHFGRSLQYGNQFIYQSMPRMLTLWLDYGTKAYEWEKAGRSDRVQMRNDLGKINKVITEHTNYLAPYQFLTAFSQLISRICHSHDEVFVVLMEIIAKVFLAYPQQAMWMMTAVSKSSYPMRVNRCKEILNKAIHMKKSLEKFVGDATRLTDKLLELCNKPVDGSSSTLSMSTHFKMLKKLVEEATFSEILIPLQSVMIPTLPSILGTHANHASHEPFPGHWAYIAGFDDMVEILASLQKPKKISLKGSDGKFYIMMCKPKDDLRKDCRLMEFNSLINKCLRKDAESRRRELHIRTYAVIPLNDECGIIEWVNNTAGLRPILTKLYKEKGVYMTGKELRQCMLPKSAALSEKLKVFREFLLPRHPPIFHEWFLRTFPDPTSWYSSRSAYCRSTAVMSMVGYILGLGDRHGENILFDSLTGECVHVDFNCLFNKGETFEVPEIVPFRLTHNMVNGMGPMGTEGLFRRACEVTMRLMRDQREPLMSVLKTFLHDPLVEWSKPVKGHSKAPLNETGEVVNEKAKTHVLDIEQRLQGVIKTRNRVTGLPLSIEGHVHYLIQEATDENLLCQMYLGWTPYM

Compound | Ki [nM]
N#CCCN1CCN(c2cnc(N)c(-c3nnc(-c4ccccc4)o3)n2)CC1 [Compound I-298, 3-[4-[5-amino-6-(5-phenyl-1,3,4-oxadiazol-2-yl)pyrazin-2-yl]piperazin-1-yl]propanenitrile] | 1000 to 10000
CCC(=O)NC1CCN(c2cnc(N)c(-c3nnc(-c4ccc(CNC)cc4)o3)n2)CC1 [Compound I-366, N-(1-(5-Amino-6-(5-(4-((methylamino)methyl)phenyl)-1,3,4-oxadiazol-2-yl)pyrazin-2-yl)piperidin-4-yl)propionamide] | 100 to 1000
CC(C)C(=O)N1CCN(c2cnc(N)c(C(=O)Nc3ccccn3)n2)CC1 [Compound I-68, 3-amino-6-(4-(2-methylpropanoyl)piperazin-1-yl)-N-(pyridin-2-yl)pyrazine-2-carboxamide] | 100 to 1000
Nc1ncc(N2CCN(C(=O)c3ccccc3)CC2)nc1C(=O)Nc1ccccn1 [Compound I-109, 3-amino-6-(4-(phenylcarbonyl)piperazin-1-yl)-N-(pyridin-2-yl)pyrazine-2-carboxamide] | 1000 to 10000
CNC(=O)C1CCN(c2cnc(N)c(-c3nc4ccc(C)cc4[nH]3)n2)CC1 [Compound I-13, 1-(5-amino-6-(6-methyl-1H-benzo[d]imidazol-2-yl)pyrazin-2-yl)-N-methylpiperidine-4-carboxamide] | 1000 to 10000
CCC(=O)N1CCN(c2cnc(N)c(-c3nnc(-c4ccc(CNC)cc4)o3)n2)C[C@H]1C [Compound I-315, 1-[(2R)-4-[5-Amino-6-[5-[4-(methylaminomethyl)phenyl]-1,3,4-oxadiazol-2-yl]pyrazin-2-yl]-2-methyl-piperazin-1-yl]propan-1-one] | 100 to 1000
CNCCC(=O)N1CC=C(c2cnc(N)c(-c3nc4ccccc4[nH]3)n2)CC1 [Compound I-346, 1-(4-(5-Amino-6-(1H-benzo[d]imidazol-2-yl)pyrazin-2-yl)-5,6-dihydropyridin-1(2H)-yl)-3-(methylamino)propan-1-one] | 100 to 1000
Nc1ncc(N2CCN(C(=O)OCc3ccccc3)CC2)nc1-c1nnc(-c2ccccc2)o1 [Compound I-255, benzyl 4-(5-amino-6-(5-phenyl-1,3,4-oxadiazol-2-yl)pyrazin-2-yl)piperazine-1-carboxylate] | 1000 to 10000
CCNC1CC=C(c2cnc(N)c(-c3nnc(-c4ccccc4)o3)n2)CC1 (centres unmarked) [Compound I-314, 5-(4-(Ethylamino)cyclohex-1-enyl)-3-(5-phenyl-1,3,4-oxadiazol-2-yl)pyrazin-2-amine] | 100 to 1000
CC#CCOC(=O)N1CCN(c2cnc(N)c(C(=O)Nc3ccccn3)n2)CC1 [Compound I-252, but-2-ynyl 4-(5-amino-6-(pyridin-2-ylcarbamoyl)pyrazin-2-yl)piperazine-1-carboxylate] | 1000 to 10000
Nc1ncc(N2CCC3(CCNC3)C2)nc1-c1nnc(-c2ccccc2)o1 (centres unmarked) [Compound I-340, 3-(5-Phenyl-1,3,4-oxadiazol-2-yl)-5-(2,7-diazaspiro[4.4]nonan-2-yl)pyrazin-2-amine] | 1000 to 10000
Nc1ncc(N2CCN(S(=O)(=O)c3cccs3)CC2)nc1-c1nnc(-c2ccccc2)o1 [Compound I-96, 3-(5-phenyl-1,3,4-oxadiazol-2-yl)-5-(4-(thiophen-2-ylsulfonyl)piperazin-1-yl)pyrazin-2-amine] | 100 to 1000
CNCc1ccc(-c2nnc(-c3nc(N4CCC5(CCNC5=O)CC4)cnc3N)o2)cc1 [Compound I-360, 8-(5-Amino-6-(5-(4-((methylamino)methyl)phenyl)-1,3,4-oxadiazol-2-yl)pyrazin-2-yl)-2,8-diazaspiro[4.5]decan-1-one] | 100 to 1000
CN(C)C1CCN(C(=O)N2CC=C(c3cnc(N)c(-c4nc5ccccc5[nH]4)n3)CC2)CC1 [Compound I-173, (4-(5-amino-6-(1H-benzo[d]imidazol-2-yl)pyrazin-2-yl)-5,6-dihydropyridin-1(2H)-yl)(4-(dimethylamino)piperidin-1-yl)methanone] | 100 to 1000
CNC(=O)[C@H]1CCN(c2cnc(N)c(-c3nc4ccc(C)cc4[nH]3)n2)C1 [Compound I-70, (S)-1-(5-amino-6-(6-methyl-1H-benzo[d]imidazol-2-yl)pyrazin-2-yl)-N-methylpyrrolidine-3-carboxamide] | 1000 to 10000

Next, values leading:

Ki [nM] | Compound
< 100 | Nc1ncc(C2=CCN(S(=O)(=O)c3cccnc3)CC2)nc1-c1nnc(-c2ccccc2)o1 [Compound I-222, 3-(5-phenyl-1,3,4-oxadiazol-2-yl)-5-(1-(pyridin-3-ylsulfonyl)-1,2,3,6-tetrahydropyridin-4-yl)pyrazin-2-amine]
< 100 | Nc1ncc(-n2ccc(=O)cc2)nc1-c1nnc(-c2ccccc2)o1 [Compound I-286, 1-[5-amino-6-(5-phenyl-1,3,4-oxadiazol-2-yl)pyrazin-2-yl]pyridin-4-one]
100 to 1000 | CNCc1ccc(-c2nnc(-c3nc(C4CC4C(=O)NCC(O)CO)cnc3N)o2)cc1 (centres unmarked) [Compound I-376, 2-[5-Amino-6-[5-[4-(methylaminomethyl)phenyl]-1,3,4-oxadiazol-2-yl]pyrazin-2-yl]-N-(2,3-dihydroxypropyl)cyclopropanecarboxamide]
< 100 | CCS(=O)(=O)N1CCN(c2cnc(N)c(-c3nnc(-c4ccccc4)o3)n2)CC1 [Compound I-18, 5-(4-(ethylsulfonyl)piperazin-1-yl)-3-(5-phenyl-1,3,4-oxadiazol-2-yl)pyrazin-2-amine]
< 100 | Cc1cccc(C)c1C(=O)N1CC=C(c2cnc(N)c(-c3nc4ccccc4[nH]3)n2)CC1 [Compound I-263, (4-(5-amino-6-(1H-benzo[d]imidazol-2-yl)pyrazin-2-yl)-5,6-dihydropyridin-1(2H)-yl)(2,6-dimethylphenyl)methanone]
< 100 | CCC(=O)N1CCN(c2cnc(N)c(-c3nnc(-c4ccc(CNC)cc4)o3)n2)C[C@@H]1C(C)C [Compound I-326, 1-[(2S)-4-[5-Amino-6-[5-[4-(methylaminomethyl)phenyl]-1,3,4-oxadiazol-2-yl]pyrazin-2-yl]-2-isopropyl-piperazin-1-yl]propan-1-one]
< 100 | COCCOCC(=O)N1CC=C(c2cnc(N)c(-c3nnc(-c4ccccc4)o3)n2)CC1 [Compound I-135, 1-(4-(5-amino-6-(5-phenyl-1,3,4-oxadiazol-2-yl)pyrazin-2-yl)-5,6-dihydropyridin-1(2H)-yl)-2-(2-methoxyethoxy)ethanone]
< 100 | Cc1ccc2nc(-c3nc(C4=CCN(S(=O)(=O)N(C)C)CC4)cnc3N)[nH]c2c1 [Compound I-23, 4-(5-amino-6-(6-methyl-1H-benzo[d]imidazol-2-yl)pyrazin-2-yl)-N,N-dimethyl-5,6-dihydropyridine-1(2H)-sulfonamide]
< 100 | Nc1ncc(C2=CCN(C(=O)c3ccccc3)CC2)nc1-c1nnc(-c2ccccc2)o1 [Compound I-103, (4-(5-amino-6-(5-phenyl-1,3,4-oxadiazol-2-yl)pyrazin-2-yl)-5,6-dihydropyridin-1(2H)-yl)(phenyl)methanone]
< 100 | CCCS(=O)(=O)N1CC=C(c2cnc(N)c(-c3nnc(-c4ccccc4)o3)n2)CC1 [Compound I-124, 3-(5-phenyl-1,3,4-oxadiazol-2-yl)-5-(1-(propylsulfonyl)-1,2,3,6-tetrahydropyridin-4-yl)pyrazin-2-amine]
< 100 | Nc1ncc(C2=CCN(S(=O)(=O)c3ccccc3)CC2)nc1-c1nnc(-c2ccccc2)o1 [Compound I-102, 3-(5-phenyl-1,3,4-oxadiazol-2-yl)-5-(1-(phenylsulfonyl)-1,2,3,6-tetrahydropyridin-4-yl)pyrazin-2-amine]
